Data reported in EP0373543A2, “Diagnostic media and assay for detecting fungicide resistance” (BASF Corporation, priority 1988, dated 1990).

Experiments:
Type in all cases: cell-based
Botrytis cinerea [1] = assay: Color change diameter on bromcresol purple media containing vinclozolin (Example 2); conditions: resistant isolates of Botrytis cinerea only; water dextrose media; after 4 days
Botrytis cinerea [2] = assay: Microscopic spore germination on the Example 3 plates; conditions: microscopically examined
Description: (§1) Resistant and sensitive fungi were initially obtained from crops of cultivated fruit in the field. The percent germination reported below was calculated by microscopic evaluation. An average of four fields of view per plate was examined with each field of view having a total of about 100 to 300 spores. The total number of spores in each field of view was counted then either the number germinated or not germinated, whichever was easiest to count, was determined. These numbers were then combined appropriately and the percent germination calculated. Unless otherwise noted, resistant isolates are given a numerical designation and sensitive isolates a letter designation.
Diagnostic media was prepared substantially as described above in Preparation Example 1 except that bromothymol blue rather than bromcresol purple and only 4 g of dextrose was used per liter and the pH adjusted to 7.5, 8.0 and 8.5. These media were then inoculated with spores of either Botrytis cinerea or Rhizopus nigricans isolates substantially as previously described. The inoculated media was then incubated for 18 hours at room temperature and the results recorded below in Table III.
Strong color reactions were only observed from the resistant Botrytis cinerea isolates. Only slight reactions, at most, occurred from the Rhizopus nigricans inoculations. Example 4

Botrytis cinerea [3] = assay: Color change diameter on bromcresol purple media containing vinclozolin (Example 2); design: key to COLOR CHANGE DIAMETER: T = only slight color change; conditions: for COLOR CHANGE DIAMETER: 20 hours
Description: (§2) To a stock solution of 0.4 g bromcresol purple in 260 mls of 0.01N sodium hydroxide, either 40 g of potato dextrose agar (PDA) or 40 g dextrose and 20 g agar (WA-dextrose medium) were added and the total volume brought up to 1 liter using distilled water. After autoclaving the media, a solution of vinclozolin in 5 mls of ethanol was added to afford 5 or 10 ppm concentrations and dispensed into petri plates (10 ml/plate). Sporulating cultures of Botrytis cinerea and Rhizopus nigricans (also known as Rhizopus stolonifer) were grown for two weeks on potato dextrose agar. Spores were transferred to the diagnostic media using sterile cotton tipped swabs and incubated for 20 hours at room temperature. The media was macroscopically examined and the diameter of color change detectable in the media was then measured.

Rhizopus nigricans = assay: as above; design: key to COLOR CHANGE DIAMETER: T = only slight color change; conditions: for COLOR CHANGE DIAMETER: 20 hours
Description: as §2

Botrytis cinerea [4] = assay: Spore germination on agar-dextrose medium containing vinclozolin, microscopic examination (Example 1); conditions: 18 hours room temperature
Description: as §1
Botrytis cinerea of known sensitivity and resistance to vinclozolin were cultured on potato dextrose agar prepared according to manufacturer's directions and Preparation Example 2 for 2 weeks and induced to sporulate under long wave ultraviolet light. Spores were transferred using a sterile cotton tipped swab to a solid medium containing 20 g of agar, 20 g dextrose and the amount of vinclozolin in parts per million per liter of media shown in Table 1 below. The innoculated media was incubated at room temperature for 18 hours and microscopically examined for germination; the results of this assay are set forth below in Table 1 where "BC" means Botrytis cinerea.

## C=CC1(C)OC(=O)N(c2cc(Cl)cc(Cl)c2)C1=O (stereo not drawn) [vinclozolin]
Botrytis cinerea [1]
  diameter color reaction: 25 mm
Botrytis cinerea [2]; all of the resistant isolates
  spore germination: greater than 90%
Botrytis cinerea [2]; sensitive isolate spores
  spore germination: no germination
Botrytis cinerea [3]; isolate BC-1 res., PDA media, vinclozolin 5.0ppm
  COLOR CHANGE DIAMETER: 5 mm
Botrytis cinerea [3]; isolate BC-1 res., PDA media, vinclozolin 10.0ppm
  COLOR CHANGE DIAMETER: 0 mm
Botrytis cinerea [3]; isolate BC-1 res., WA-dextrose media, vinclozolin 5.0ppm
  COLOR CHANGE DIAMETER: T^a
Botrytis cinerea [3]; isolate BC-1 res., WA-dextrose media, vinclozolin 10.0ppm
  COLOR CHANGE DIAMETER: 5 mm
Botrytis cinerea [3]; isolate BC-2 res., PDA media, vinclozolin 5.0ppm
  COLOR CHANGE DIAMETER: 10 mm
Botrytis cinerea [3]; isolate BC-2 res., PDA media, vinclozolin 10.0ppm
  COLOR CHANGE DIAMETER: 0 mm
Botrytis cinerea [3]; isolate BC-2 res., WA-dextrose media, vinclozolin 5.0ppm
  COLOR CHANGE DIAMETER: 10 mm
Botrytis cinerea [3]; isolate BC-2 res., WA-dextrose media, vinclozolin 10.0ppm
  COLOR CHANGE DIAMETER: 5 mm
Botrytis cinerea [3]; isolate BC-3 resistant, PDA media, vinclozolin 5.0ppm
  COLOR CHANGE DIAMETER: 10 mm
Botrytis cinerea [3]; isolate BC-3 resistant, PDA media, vinclozolin 10.0ppm
  COLOR CHANGE DIAMETER: 0 mm
Botrytis cinerea [3]; isolate BC-3 resistant, WA-dextrose media, vinclozolin 5.0ppm
  COLOR CHANGE DIAMETER: 10 mm
Botrytis cinerea [3]; isolate BC-3 resistant, WA-dextrose media, vinclozolin 10.0ppm
  COLOR CHANGE DIAMETER: 10 mm
Botrytis cinerea [3]; isolate BC-A sensitive, PDA media, vinclozolin 5.0ppm
  COLOR CHANGE DIAMETER: 0 mm
Botrytis cinerea [3]; isolate BC-A sensitive, PDA media, vinclozolin 10.0ppm
  COLOR CHANGE DIAMETER: 0 mm
Botrytis cinerea [3]; isolate BC-A sensitive, WA-dextrose media, vinclozolin 5.0ppm
  COLOR CHANGE DIAMETER: 0 mm
Botrytis cinerea [3]; isolate BC-A sensitive, WA-dextrose media, vinclozolin 10.0ppm
  COLOR CHANGE DIAMETER: 0 mm
Botrytis cinerea [3]; isolate BC-B sens., PDA media, vinclozolin 5.0ppm
  COLOR CHANGE DIAMETER: 0 mm
Botrytis cinerea [3]; isolate BC-B sens., PDA media, vinclozolin 10.0ppm
  COLOR CHANGE DIAMETER: 0 mm
Botrytis cinerea [3]; isolate BC-B sens., WA-dextrose media, vinclozolin 5.0ppm
  COLOR CHANGE DIAMETER: 0 mm
Botrytis cinerea [3]; isolate BC-B sens., WA-dextrose media, vinclozolin 10.0ppm
  COLOR CHANGE DIAMETER: 0 mm
Botrytis cinerea [3]; isolate BC-D sens., PDA media, vinclozolin 5.0ppm
  COLOR CHANGE DIAMETER: 0 mm
Botrytis cinerea [3]; isolate BC-D sens., PDA media, vinclozolin 10.0ppm
  COLOR CHANGE DIAMETER: 0 mm
Botrytis cinerea [3]; isolate BC-D sens., WA-dextrose media, vinclozolin 5.0ppm
  COLOR CHANGE DIAMETER: 0 mm
Botrytis cinerea [3]; isolate BC-D sens., WA-dextrose media, vinclozolin 10.0ppm
  COLOR CHANGE DIAMETER: 0 mm
Botrytis cinerea [3]; resistant isolates, PDA media containing 10 ppm of vinclozolin, after 4 days
  color change: no measurable color change
Rhizopus nigricans; Rhizopus nigricans isolates, PDA media containing 5 ppm of vinclozolin, after 4 days
  color reaction: allowed 1 of the Rhizopus nigricans contaminated isolates to react
Rhizopus nigricans; isolate RP-1, PDA media, vinclozolin 5.0ppm
  COLOR CHANGE DIAMETER: T
Rhizopus nigricans; isolate RP-1, PDA media, vinclozolin 10.0ppm
  COLOR CHANGE DIAMETER: 0 mm
Rhizopus nigricans; isolate RP-1, WA-dextrose media, vinclozolin 5.0ppm
  COLOR CHANGE DIAMETER: 0 mm
Rhizopus nigricans; isolate RP-1, WA-dextrose media, vinclozolin 10.0ppm
  COLOR CHANGE DIAMETER: 0 mm
Rhizopus nigricans; isolate RP-2, PDA media, vinclozolin 5.0ppm
  COLOR CHANGE DIAMETER: T
Rhizopus nigricans; isolate RP-2, PDA media, vinclozolin 10.0ppm
  COLOR CHANGE DIAMETER: 0 mm
Rhizopus nigricans; isolate RP-2, WA-dextrose media, vinclozolin 5.0ppm
  COLOR CHANGE DIAMETER: 0 mm
Rhizopus nigricans; isolate RP-2, WA-dextrose media, vinclozolin 10.0ppm
  COLOR CHANGE DIAMETER: 0 mm
Botrytis cinerea [4]; isolate BC-1 resistant, vinclozolin 2.5 ppm
  Percent Germination: 100%
Botrytis cinerea [4]; isolate BC-1 resistant, vinclozolin 5.0 ppm
  Percent Germination: 100%
Botrytis cinerea [4]; isolate BC-1 resistant, vinclozolin 10.0 ppm
  Percent Germination: 100%
Botrytis cinerea [4]; isolate BC-2 res., vinclozolin 2.5 ppm
  Percent Germination: 100%
Botrytis cinerea [4]; isolate BC-2 res., vinclozolin 5.0 ppm
  Percent Germination: 100%
Botrytis cinerea [4]; isolate BC-2 res., vinclozolin 10.0 ppm
  Percent Germination: 100%
Botrytis cinerea [4]; isolate BC-3 res., vinclozolin 2.5 ppm
  Percent Germination: 100%
Botrytis cinerea [4]; isolate BC-3 res., vinclozolin 5.0 ppm
  Percent Germination: 90%
Botrytis cinerea [4]; isolate BC-3 res., vinclozolin 10.0 ppm
  Percent Germination: 80%
Botrytis cinerea [4]; isolate BC-4 res., vinclozolin 2.5 ppm
  Percent Germination: 100%
Botrytis cinerea [4]; isolate BC-4 res., vinclozolin 5.0 ppm
  Percent Germination: 100%
Botrytis cinerea [4]; isolate BC-4 res., vinclozolin 10.0 ppm
  Percent Germination: 100%
Botrytis cinerea [4]; isolate BC-5 res., vinclozolin 2.5 ppm
  Percent Germination: 100%
Botrytis cinerea [4]; isolate BC-5 res., vinclozolin 5.0 ppm
  Percent Germination: 100%
